Experimental findings from US20240069011A1, “PREDICTING EFFICACY OF OR RESISTANCE TO TREATMENT OF COLON CANCER” (2cureX A/S, priority 2020, published 2024) are described below.

The test system of test [1] is tumoroids from colon cancer patients. Put plainly: Tumoroid ATP content (CellTiter-Glo 3D cell viability assay). Format: cell-based, human. As to conditions: 50% inhibition of total ATP content, day 7, tumoroids from four control patients. On the procedure: The tumoroids were prepared from the same patient samples as described above under “drug sensitivity measured with imaging”. The tumoroids were added to drug screening arrays that we pre-loaded with varying concentrations of Oxaliplatin (3, 10, 30, 100, 300 uM), FOLFOX (0, 1, 0, 3, 1, 3, 10 30 uM. Equal concentrations of 5-Fluorouracil and Oxaliplatin) and SN38 (10, 30, 100, 300, 1000 nM). ATP content of cells in the tumoroids was measured day 0 and on day 7 using CellTiter-Glo 3D cell viability assay (Promega; Catalog number G9681). The homogenous CellTiter-Glo 3D assays generates a luminescent signal that is proportional to the amount of cellular ATP. The assay was conducted in accordance with the instructions from the manufacture (Promega) by allowing the drug screening arrays to equilibrate to room temperature (20-25° C.) and then adding an amount of the CellTiter-Glo 3D reagent to the drug screening arrays. The equal volume of media and reagent is mixed thoroughly for 5 min to induce cell lysis and release of cellular ATP content. The luminescence signal was monitored with the Cytation 1 (BioTek) imaging system operating in luminescence mode. The luminescence signal was quantified by direct comparison to an ATP dose-response curve created by replacing the drug screening media with ATP standards.
(Cellular ATP, detected with luciferase, serves as a proxy for viable cell number.)

Test [2] has the same test system. The test is described as follows: Tumoroid growth inhibition measured as projected area by imaging (CyQUANT, IndiNet). It is filed as cell-based, human. As to conditions: 50% inhibition of tumoroid growth (projected area), day 7, tumoroids from four control patients. The procedure: The tumoroids were prepared from patient samples as described above in Example 2 under “3D tumoroid preparation”. The tumoroids were added to drug screening arrays that we pre-loaded with varying concentrations of Oxaliplatin (3, 10, 30, 100, 300 uM), FOLFOX (0, 1, 0, 3, 1, 3, 10 30 uM. Equal concentrations of 5-Fluorouracil and Oxaliplatin) and SN38 (10, 30, 100, 300, 1000 nM). SN38 is the active components of Irinotecan. At day 6 to day 7 tumoroids were stained with CyQUANT (cell proliferation assay). Tumoroid growth was measured by taking brightfield images on day 0 and visualizing living cells using CyQUANT Cell proliferation assay (ThermoFisher) on day 7. All images were acquired using a Cytation 1 (BioTek) imaging system. For Control patients, tissue from resected tumor was used. This sampling method typically secures bigger amounts of tissue and mechanically as well as enzymatically digestion is performed.
Images from day 0 and day 7 were analysed using the Al image analysis algorithm IndiNet™, which quantifies the projected area (referred to as “area” in this example) of live cells in both brightfield (day 0) and fluorescence (day 7) images and calculates the relative growth inhibition. […]

The mark [3] stands for this setting: Folfox = equal concentrations of 5-Fluorouracil and Oxaliplatin.

For orientation: IC50 means the concentration that inhibits the measured activity by half. A lower IC50 goes with higher potency.

Regarding `O=C1[O][Pt]2([NH][C@@H]3CCCC[C@H]3[NH]2)[O]C1=O` [Oxaliplatin, oxaliplatin], the IC50 turned out to be 72.7 µM in test [1] (setting [3]) and 17.7 µM in test [2] (setting [3]).

As to `CCc1c2c(nc3ccc(O)cc13)-c1cc3c(c(=O)n1C2)COC(=O)[C@]3(O)CC` [SN38], the IC50 was 0.0367 µM in test [1] and 0.00164 µM in test [2].
